US10954214B2 (Janssen Pharmaceutica NV, priority 2016, dated 2021)

Assays:
TMD8 cells = assay: 4-day proliferation assay, TMD8; assay type: cell-based; conditions: Homo sapiens, 96 h, 4 days incubation, CellTiterGLO, read-out: Anti-proliferation: TMD-8 IC50
Outline: (§1)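 Each line was plated at 10,000 cells per well for linear growth, with no beta-mercaptoethanol during the assay. OCI-Ly3 cells were below passage 10.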

[1] = test system: IL10 secretion by TMD8 ABC-DLBCL cells; assay: Human IL10 Mesoscale assay (TMD-8); assay type: cell-based; conditions: Homo sapiens, TMD8; TMD-8 cells, 24 h
Outline: (§2)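 100,000 cells/well treated with compound in 9 twofold steps from 15 μM to 58.6 nM (0.3% DMSO) for 24 h at 37° C; supernatant cytokine measured by MSD electrochemiluminescence sandwich immunoassay. DMSO wells set maximum signal, BTK inhibitor RN486 (30 nM to 131 pM) set maximum inhibition.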

[2] = test system: IL6 secretion by TMD8 ABC-DLBCL cells; assay: Human IL6 Mesoscale assay (TMD-8); assay type: cell-based; conditions: Homo sapiens, TMD8; TMD-8 cells, 24 h
Outline: as §2

Jurkat cells = assay: PMA Induced IL2 Production In Jurkat Cells; assay type: cell-based; conditions: Homo sapiens, PMA/Ionomycin, 20 h, read-out: IL-2 prod h Jurkat PMA IC50
Description: Jurkat cells were maintained in complete RPMI 1640 media containing 10% fetal bovine serum, 10 mM HEPES, 100 units/mL of penicillin and 100 μg/mL of streptomycin. Prior to the assay, compounds were made 2- to 4-fold serial dilutions in DMSO. A volume of 10 μL of DMSO-diluted compound in each well were further diluted into 240 μL RPMI1640 complete media. Jurkat cells were harvested by centrifuge at 1200 RPM for 5 min, washed one time with RPMI 1640 media, and suspended in fresh complete RPMI 1640 media at concentration of 1.25×10^6 cell/mL. A volume of 160 uL of Jurkat cells (2×10^5 cells) were seeded in each well of 96 well plate-bottom plates. A volume of 20 uL of diluted compound in RMPI 1640 complete media were added to each well and incubated with Jurkat cells for 30 min at 37° C. in a 5% CO2 incubator. A volume 20 μL of diluted PMA/Ionomycin (81 nM/1.3 uM respectively, ebioscience, catalog number 00-4970-93) in RMPI 1640 complete media were added to each well. After incubation at 37° C. in 5% CO2 incubator for 20 h, supernatants were harvested. IL-2 concentration was assessed by ELISA (IL2 Duoset, R&D Systems, catalog number DY202). Colorimetric intensity at 450 nm was read by Spectramax plate reader and analyzed with Softmax Pro software. Cell viability was assessed by Cell Titer Glo kit (Promega, catalog number G7571) using Victor Luminescence reader (Victor 3V 4202938 by Perkin Elmer).

OCI-Ly3 cells = assay: 4-day proliferation assay, OCI-Ly3; assay type: cell-based, human; conditions: Homo sapiens, 96 h, 4 days incubation, CellTiterGLO, read-out: Anti-proliferation: OCI-LY-3 IC50
Outline: as §1

[3] = target: full-length MALT1 protein (Strep-MALT1(1-824)-His) (Homo sapiens (Human), UniProt Q9UDY8); assay: MALT1 Biochemical Protease Assay (Ac-LRSR-AMC substrate); conditions: 10 nM FL MALT1, 200 μM Ac-LRSR-AMC, 4 h at RT; read-out: MALT1_Biochemical activity (Ac-LRSR-amc) IC50
full-length MALT1 protein (Strep-MALT1(1-824)-His), sequence (Q9UDY8 whole entry): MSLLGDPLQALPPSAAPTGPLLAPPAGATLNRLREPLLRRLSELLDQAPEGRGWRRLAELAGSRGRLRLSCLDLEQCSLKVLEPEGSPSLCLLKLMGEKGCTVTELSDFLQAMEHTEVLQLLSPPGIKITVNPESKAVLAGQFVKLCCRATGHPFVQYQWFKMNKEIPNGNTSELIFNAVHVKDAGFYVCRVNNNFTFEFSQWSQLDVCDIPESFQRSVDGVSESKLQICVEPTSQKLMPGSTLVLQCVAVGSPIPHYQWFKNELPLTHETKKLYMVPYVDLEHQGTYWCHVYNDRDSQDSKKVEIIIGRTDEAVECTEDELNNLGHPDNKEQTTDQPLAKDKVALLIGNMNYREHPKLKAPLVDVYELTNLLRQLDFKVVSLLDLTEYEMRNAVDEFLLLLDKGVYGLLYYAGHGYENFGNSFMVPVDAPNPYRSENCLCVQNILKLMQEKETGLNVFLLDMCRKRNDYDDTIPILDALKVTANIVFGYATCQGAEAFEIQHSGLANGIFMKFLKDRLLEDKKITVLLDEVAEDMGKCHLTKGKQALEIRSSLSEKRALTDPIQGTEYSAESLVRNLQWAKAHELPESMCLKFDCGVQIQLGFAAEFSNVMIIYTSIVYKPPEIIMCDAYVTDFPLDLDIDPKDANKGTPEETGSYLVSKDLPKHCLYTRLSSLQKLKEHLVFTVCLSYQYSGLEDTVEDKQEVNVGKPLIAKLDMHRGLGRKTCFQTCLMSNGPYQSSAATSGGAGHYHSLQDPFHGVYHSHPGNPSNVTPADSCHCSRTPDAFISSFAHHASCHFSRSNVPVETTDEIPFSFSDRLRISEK
Outline: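 Fluorescence from AMC release off the quenched LRSR substrate was read after a 4 h reaction at RT. Values were normalised to no-enzyme and uninhibited controls and fitted for IC50 and Hill coefficient.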

Row | IC50 [1] [nM] | IC50 [2] [nM] | IC50 (Jurkat cells) [nM] | IC50 (OCI-Ly3 cells) [nM] | IC50 [3] [nM] | Compound | IC50 (TMD8 cells) [nM]
1 | 138 | 219 | 160 | ~2880 | 191 | O=C(Nc1ccnc(C(F)(F)F)c1)c1cnn(-c2cccc3ccccc23)c1C(F)(F)F [Cpd 3, 1-(Naphthalen-1-yl)-5-(trifluoromethyl)-N-(2-(trifluoromethyl)pyridin-4-yl)-1H-pyrazole-4-carboxamide] | 9550
2 | 129 | 93 | 740 | ~1950 | 74 | COc1ncc(NC(=O)c2cnn(-c3cncc4ccccc34)c2C(F)(F)F)cc1C#N [Cpd 24, N-(5-cyano-6-methoxypyridin-3-yl)-1-(isoquinolin-4-yl)-5-(trifluoromethyl)-1H-pyrazole-4-carboxamide] | ~10000
3 | 2880 | 6030 | 3240 | 10700 | 813 | COC(C)c1c(C(=O)Nc2cnc(-n3nccn3)c(Cl)c2)cnn1-c1cccc2ncccc12 (centres unmarked) [Cpd 35, N-(5-Chloro-6-(2H-1,2,3-triazol-2-yl)pyridin-3-yl)-5-(1-methoxyethyl)-1-(quinolin-5-yl)-1H-pyrazole-4-carboxamide] | 11000
4 | 214 | 339 | 360 | ~500 | 200 | O=C(Nc1cncc(C(F)(F)F)c1)c1cnn(-c2cccc3ccccc23)c1C(F)(F)F [Cpd 4, 1-(Naphthalen-1-yl)-5-(trifluoromethyl)-N-(5-(trifluoromethyl)pyridin-3-yl)-1H-pyrazole-4-carboxamide] | ~15800
5 | 195 | ~93 | 130 | 540 | 182 | Cc1ncn(-c2ccc(NC(=O)c3cnn(-c4cncc5ccccc45)c3C(F)(F)F)cc2Cl)n1 [Cpd 55, N-(3-chloro-4-(3-methyl-1H-1,2,4-triazol-1-yl)phenyl)-1-(isoquinolin-4-yl)-5-(trifluoromethyl)-1H-pyrazole-4-carboxamide] | 5250
6 | 204 | 355 | 73 | 340 | 398 | CN1CCC(Oc2ncc(NC(=O)c3cnn(-c4cncc5ccccc45)c3C(F)(F)F)cc2Cl)CC1 [Cpd 45, N-(5-chloro-6-((1-methylpiperidin-4-yl)oxy)pyridin-3-yl)-1-(isoquinolin-4-yl)-5-(trifluoromethyl)-1H-pyrazole-4-carboxamide] | ~9330
7 | 14 | 17 | 2 | 110 | 19 | O=C(Nc1cnc(-n2nccn2)c(Cl)c1)c1cnn(-c2cncc3ccccc23)c1C(F)(F)F [Cpd 32, N-(5-chloro-6-(2H-1,2,3-triazol-2-yl)pyridin-3-yl)-1-(isoquinolin-4-yl)-5-(trifluoromethyl)-1H-pyrazole-4-carboxamide] | 4900
8 |  | 1950 | 410 | 1100 | 229 | N#Cc1cc(NC(=O)c2cnn(-c3cccc4ccncc34)c2C(F)(F)F)cnc1-n1nccn1 [Cpd 19, N-(5-cyano-6-(2H-1,2,3-triazol-2-yl)pyridin-3-yl)-1-(isoquinolin-8-yl)-5-(trifluoromethyl)-1H-pyrazole-4-carboxamide] | > 20000
9 | 91 | 79 | 130 | 210 | 35 | Cn1ccc(-c2ncc(NC(=O)c3cnn(-c4cncc5ccccc45)c3C(F)(F)F)cc2Cl)n1 [Cpd 52, N-(5-chloro-6-(1-methyl-1H-pyrazol-3-yl)pyridin-3-yl)-1-(isoquinolin-4-yl)-5-(trifluoromethyl)-1H-pyrazole-4-carboxamide] | 5010
10 | 126 | 62 | 96 | 200 | 45 | Cc1ncnn1-c1ccc(NC(=O)c2cnn(-c3cncc4ccccc34)c2C(F)(F)F)cc1Cl [Cpd 51, N-(3-Chloro-4-(5-methyl-1H-1,2,4-triazol-1-yl)phenyl)-1-(isoquinolin-4-yl)-5-(trifluoromethyl)-1H-pyrazole-4-carboxamide] | ~6610
11 | ~110 | 117 | 11 | 560 | 162 | O=C(Nc1cnc(N2CCCS2(=O)=O)c(Cl)c1)c1cnn(-c2cncc3ccccc23)c1C(F)(F)F [Cpd 42, N-(5-Chloro-6-(1,1-dioxidoisothiazolidin-2-yl)pyridin-3-yl)-1-(isoquinolin-4-yl)-5-(trifluoromethyl)-1H-pyrazole-4-carboxamide] | 6170
12 |  | 794 | 170 | ~4370 | 141 | CCc1c(C(=O)Nc2cnc(-n3nccn3)c(Cl)c2)cnn1-c1cccc2ncccc12 [Cpd 17, N-(5-Chloro-6-(2H-1,2,3-triazol-2-yl)pyridin-3-yl)-5-ethyl-1-(quinolin-5-yl)-1H-pyrazole-4-carboxamide] | 9330
13 |  | 166 | 130 | 430 | 41 | COc1ncc(NC(=O)c2cnn(-c3cccc4ncccc34)c2C(F)(F)F)cc1Cl [Cpd 7, N-(5-Chloro-6-methoxypyridin-3-yl)-1-(quinolin-5-yl)-5-(trifluoromethyl)-1H-pyrazole-4-carboxamide] | ~14100
14 | 955 | 1950 | 1970 | ~1120 | 759 | Cc1c(C(=O)Nc2cnc(-n3nccn3)c(Cl)c2)cnn1-c1cccc2ncccc12 [Cpd 39, N-(5-Chloro-6-(2H-1,2,3-triazol-2-yl)pyridin-3-yl)-5-methyl-1-(quinolin-5-yl)-1H-pyrazole-4-carboxamide] | 14400
15 | 28 | 52 | 59 | 420 | 12 | O=C(Nc1cnc(-n2nccn2)c(Cl)c1)c1cnn(-c2cccc3ccccc23)c1C(F)(F)F [Cpd 2, N-(5-Chloro-6-(2H-1,2,3-triazol-2-yl)pyridin-3-yl)-1-(naphthalen-1-yl)-5-(trifluoromethyl)-1H-pyrazole-4-carboxamide] | 13800
16 |  | 282 | 140 | ~780 | 214 | N#Cc1cncc(NC(=O)c2cnn(-c3cccc4ccccc34)c2C(F)(F)F)c1 [Cpd 5, N-(5-Cyanopyridin-3-yl)-1-(naphthalen-1-yl)-5-(trifluoromethyl)-1H-pyrazole-4-carboxamide] | > 20000
17 |  | 195 | 39 | ~2400 | 65 | Cc1cc2ccccc2c(-n2ncc(C(=O)Nc3cnc(-n4nccn4)c(Cl)c3)c2C(F)(F)F)n1 [Cpd 9, N-(5-Chloro-6-(2H-1,2,3-triazol-2-yl)pyridin-3-yl)-1-(3-methylisoquinolin-1-yl)-5-(trifluoromethyl)-1H-pyrazole-4-carboxamide] | 10700
18 |  | ~13500 | 680 | ~9550 | 977 | O=C(Nc1ccc(-n2nccn2)c(Cl)c1)c1cnn(-c2cccc3ccncc23)c1C(F)(F)F [Cpd 11, N-(3-chloro-4-(2H-1,2,3-triazol-2-yl)phenyl)-1-(isoquinolin-8-yl)-5-(trifluoromethyl)-1H-pyrazole-4-carboxamide] | 12600
19 |  | 32 | 5.2 | 110 | 13 | O=C(Nc1cnc(-n2nccn2)c(Cl)c1)c1cnn(-c2cccc3ncccc23)c1C(F)(F)F [Cpd 8, N-(5-Chloro-6-(2H-1,2,3-triazol-2-yl)pyridin-3-yl)-1-(quinolin-5-yl)-5-(trifluoromethyl)-1H-pyrazole-4-carboxamide] | ~7590
